Common to all, as to assay: NCI tumour cell line growth inhibition, 48 h
For assay [1], the system named is CCRF-CEM leukemia.
Assay [2] has as its system HCC-2998 colon.
The subject of assay [3] is LOX IMVI melanoma.
Assay [4] relates to MCF7 breast.
In assay [5] the test system is MDA-MB-435.
For assay [6], the system named is OVCAR-3 ovarian.
Assay [7] deals with SF-295 CNS.
Assay [8] concerns SK-MEL-28 melanoma.
For assay [9], the system named is SNB-75 CNS.
Assay [10] deals with T-47D breast.

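Five concentrations, 48 hours, 96-well plates. GI50 is the concentration that inhibits growth by half. TGI is the concentration that stops growth completely.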

Take `COc1ccccc1NS(=O)(=O)c1ccc2oc(SC(C)C)nc2c1`: the GI50 is 11.9 µM in assay [1]; 27 µM in [2]; 12.7 µM in [3]; 15.5 µM in assay [4]; 18.7 µM in [5]; 19.3 µM in assay [6]. Besides, the GI50 is 11.1 µM in [7], 37.5 µM in assay [8], 27.4 µM in assay [9] and 8.98 µM in [10]. The TGI in assay [1] is 56.1 µM; in [2], 51.4 µM; in [3], 46.4 µM; in assay [4], > 100 µM; in assay [5] it was 94 µM; in assay [6], 40.4 µM. In addition, the TGI in [7] is 37 µM; in assay [8], > 100 µM; in assay [9] it was 84.3 µM; in assay [10] it was > 100 µM.
Turning to `NC(=Nc1ccc(N)cc1)C(N)=Nc1ccc(N)cc1`, the GI50 in assay [1] is 45.7 µM; in assay [2], > 100 µM; in assay [3], > 100 µM; in assay [4], 82.8 µM; in assay [5], > 100 µM; in assay [6], 33.3 µM. Besides, the GI50 in assay [7], in assay [8], in [9] and in assay [10] was > 100 µM throughout. In addition, the TGI in assay [1], in assay [2], in assay [3], in assay [4], in assay [5] and in assay [6] was > 100 µM each time. For the same compound, the TGI in assay [7], in assay [8], in assay [9] and in [10] was > 100 µM in each case.
`N#Cc1c(N)nc(NCc2ccccc2)c(C#N)c1-c1ccc(Cl)cc1Cl`: the GI50 in assay [1] was 10.2 µM; in assay [2], > 100 µM; in [3] it was > 100 µM; in assay [4], > 100 µM; in assay [5] it was > 46.8 µM; in assay [6] it was > 64.2 µM. For the same compound, the GI50 in assay [7] was > 63.9 µM; in assay [8], > 100 µM; in assay [9], 22.9 µM; in assay [10], 72.3 µM. The TGI in assay [1] is 28.6 µM; in [2], > 100 µM; in assay [3], > 100 µM; in assay [4], > 100 µM; in assay [5] it was > 100 µM; in assay [6], > 100 µM. Besides, the TGI is > 100 µM in assay [7], > 100 µM in assay [8], 99 µM in assay [9] and > 100 µM in [10].
As to `N#CN1CC[C@H](C(=O)Nc2cc3cc(C(N)=O)ccc3cn2)C1`, the GI50 was 0.029 µM in [1]; 0.144 µM in assay [2]; 0.117 µM in assay [3]; 0.0214 µM in assay [4]; 0.045 µM in assay [5]; < 0.0186 µM in assay [6]. For the same compound, the GI50 was 0.392 µM in assay [7], 0.117 µM in [8], 0.0649 µM in [9] and 0.016 µM in assay [10]. Further, the TGI in [1] is > 100 µM; in assay [2] it was 10.8 µM; in [3], > 54.9 µM; in assay [4], > 100 µM; in assay [5] it was 13.2 µM; in assay [6], 0.206 µM. Besides, the TGI was > 47.7 µM in [7], 9.41 µM in assay [8], 0.512 µM in assay [9] and 0.0651 µM in [10].
With `C[C@@H]1COCCN1c1cc(C2([S@@](C)(=N)=O)CC2)nc(-c2ccnc3[nH]ccc23)n1`, the GI50 in assay [1] is 2.55 µM; in [2] it was 4.69 µM; in assay [3] it was 2.14 µM; in assay [4], 0.956 µM; in assay [5] it was 5.27 µM; in assay [6] it was 7.07 µM. In addition, the GI50 is 3.35 µM in assay [7], 9.76 µM in assay [8], 2.3 µM in [9] and 3.43 µM in [10]. For the same compound, the TGI in assay [1] is > 42.5 µM; in [2] it was > 100 µM; in assay [3], 14 µM; in assay [4], > 100 µM; in [5], > 100 µM; in assay [6] it was > 91.1 µM. The TGI is 32.5 µM in assay [7], > 88.9 µM in assay [8], 28.6 µM in assay [9] and 33.4 µM in assay [10].
Regarding `COc1cccc(/C(C)=N/NC(=O)CSc2nc3ccccc3c(=O)n2CCc2ccc(S(N)(=O)=O)cc2)c1`, the GI50 in [1] is 5.31 µM; in assay [2] it was 24 µM; in assay [3], 3.1 µM; in [4], 3.14 µM; in [5] it was 3.18 µM; in assay [6], 2.32 µM. In addition, the GI50 was 4.02 µM in assay [7], 10.8 µM in assay [8], 5.86 µM in [9] and 6.44 µM in assay [10]. Moreover, the TGI is > 100 µM in assay [1]; 62.9 µM in assay [2]; 11.7 µM in [3]; 15.4 µM in assay [4]; 12.6 µM in [5]; 4.8 µM in assay [6]. Besides, the TGI in assay [7] amounted to 16.3 µM; in assay [8], 38.7 µM; in assay [9] it was 26.9 µM; in assay [10], 29.3 µM.
For `COc1cc(NCCN=C(N)NC(N)=NC(C)C)c2ncccc2c1`, the GI50 was 16.4 µM in assay [1]; 6.61 µM in assay [2]; 20.1 µM in assay [3]; 0.0297 µM in assay [4]; 18.6 µM in assay [5]; 1.06 µM in assay [6]. Besides, the GI50 is > 90.9 µM in assay [7], 14.1 µM in [8], 2.48 µM in [9] and 1.44 µM in assay [10]. Also, the TGI in assay [1] was > 100 µM; in assay [2] it was 50.9 µM; in assay [3], 94.8 µM; in assay [4], 0.116 µM; in assay [5], 41.9 µM; in [6], 23.1 µM. Besides, the TGI was > 100 µM in [7], > 83.8 µM in [8], 13.8 µM in assay [9] and 5.12 µM in assay [10].

Values taken from PubChem BioAssay (NCI).
